Molecular target: Sonic hedgehog protein (Mus musculus, UniProt Q62226)
Assay: Activation of Shh in mouse Shh Light2 cells after 30 hrs by luciferase reporter gene assay

Sonic hedgehog protein, sequence (Q62226 25-198 limits assumed): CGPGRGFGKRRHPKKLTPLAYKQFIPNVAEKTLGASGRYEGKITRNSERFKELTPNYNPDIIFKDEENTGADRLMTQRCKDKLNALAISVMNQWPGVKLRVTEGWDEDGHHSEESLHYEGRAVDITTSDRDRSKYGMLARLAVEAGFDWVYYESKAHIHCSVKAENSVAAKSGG

With c1ccc2c(Oc3nc(Nc4ccc(N5CCOCC5)cc4)c4ncn(C5CCCCC5)c4n3)cccc2c1 [Purmorphamine] the EC50 was 1 µM.

Source: BindingDB's records for doi:10.1038/nchembio753 (Stanford University School of Medicine, 2006)
